# Reference: patent US8642510B2, “Inhibitors for brassinosteroid signalling” (GMI-Gregor Mendel-Institut fuer Molekulare Pflanzenbiologie …, priority 2008, dated 2014)
# “Also recorded” adds a separate entry of the source.
# Experiments:
# bri1-1 mutant seedlings = assay: Physiological test, phenotype rescue of brassinosteroid signalling mutant bri1-1; format: in vivo, Arabidopsis thaliana; details: 30 μM in medium, 7 days
# Description: FIG. 3: Effects on the phenotype of brassinosteroid mutants. 7-day-old seedlings of the brassinosteroid synthesis mutant cpd and signalling mutant bri1-1 were transferred to MS medium containing 1 μM epi-brassinolide (Epi-BL) or compounds 10 and 15 at a concentration of 30 μM and incubated for 7 days under long day conditions. All pictures were taken at the same magnification. The bar represents 1 mm.
# Arabidopsis thaliana Co10 or bri1-1 seedlings were grown in vitro on ½ MS plates containing 1% sucrose in a growth camber under long day conditions (16 h light with 50 μE·m^−2·s^−1, 8 h dark) for 7 days. Subsequently, they were transferred to plates supplemented with inhibitors at different concentrations and effects on the phenotype were observed 7 days later.
# Downregulation of ASK activity is crucial in brassinosteroid signalling. ASKs are constitutively active in cpd and bril-1 mutants, which are defective in brassinosteroid biosynthesis or signalling, respectively. This leads to severely dwarfed plants with dark green downward curled leaves and shortened hypocotyls. […] To screen for in vivo potency, cpd and bril-1 mutants were transferred to media containing 4-[(5-bromo-2-pyridinyl)amino]-4-oxobutanoic acid derivatives at a concentration of 30 μM. […] The potency to rescue the phenotype correlated with the results of the in vitro assay.
# ASKζ = target: T1, ASKζ (Arabidopsis thaliana, UniProt Q39010); assay: In vivo kinase assay, BZR1-CFP phosphorylation band-shift in protoplasts; format: cell-based, A. thaliana; details: protoplasts co-transformed with BZR1-CFP and Myc-tagged ASK; increasing concentrations
# T1 construct: expressed in transfected cells; host or cells: A. thaliana protoplasts
# T1 sequence (Q39010 1-412): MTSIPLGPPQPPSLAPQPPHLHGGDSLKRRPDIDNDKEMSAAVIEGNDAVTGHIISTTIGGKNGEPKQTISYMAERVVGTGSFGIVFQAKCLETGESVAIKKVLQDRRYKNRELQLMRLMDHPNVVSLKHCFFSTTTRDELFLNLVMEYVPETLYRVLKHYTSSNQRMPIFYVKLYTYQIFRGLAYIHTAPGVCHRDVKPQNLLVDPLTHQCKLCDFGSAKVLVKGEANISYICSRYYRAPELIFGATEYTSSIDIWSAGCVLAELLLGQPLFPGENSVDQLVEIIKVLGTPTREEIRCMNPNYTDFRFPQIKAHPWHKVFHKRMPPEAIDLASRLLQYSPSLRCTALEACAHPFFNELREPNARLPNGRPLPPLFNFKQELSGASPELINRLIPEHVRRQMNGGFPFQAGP
# Description: A. thaliana protoplasts were co-transformed with expression constructs of BZR1-CFP and Myc-tagged ASKζ and treated with increasing concentrations of compounds 10 and 15. […] and ASKζ-Myc were detected by western blot analysis using polyclonal anti-GFP and monoclonal anti-Myc antibodies, respectively. A Coomassie R250 stain is shown as a loading control. Depending on the ASKζ kinase activity BZR1-CFP can be observed in a phosphorylated or unphosphorylated form (indicated by arrows). The ratio of the two ASKζ-Myc bands, indicating posttranslational modification of this protein, were not affected by inhibitor application.
# ASKs were expressed as GST-fusion proteins in E. coli BL21. […] The reaction products were separated by SDS-PAGE and the amount of radioactivity incorporated into MBP quantified using an Amersham storage phosphor imager screen and a Biorad Molecular Imager FX. In vivo kinase activity was detected by phosphorylation band-shift assays using BZR1-CFP as substrate.
# Because of this unexpected result, the effect of the inhibitions on the in vivo ASK activity was analysed by a direct method. […] Transformed protoplasts were incubated with different concentrations of compounds 10 and 15 and BZR1-CFP and […] and subsequently analysed by western blotting.
# [1] = Determination of pKa values; details: pH5.8, the pH of the medium
# Description: Fifty to 100 mg compound were weighed and dissolved in 50 ml 50% (v/v) methanol. A titration curve with 50 mM NaOH as standard solution was recorded with a Greisinger electonics GPHR 1400A pH meter. The equivalence point was determined by the difference quotient method (ΔpH/ΔVNaOH) and the pKa read from the titration curve at 50% neutralisation.
compound,measurement,setting,value
"COC(=O)CCC(=O)Nc1ccc(I)cn1 [Compound 10, 4-[(5-iodopyrid-2-yl)amino]-4-oxobutanoic acid methyl ester]",Rescue of bri1-1 mutant phenotype,bri1-1 mutant seedlings,highly active in vivo
same,Inhibition of in vivo ASK activity (BZR1-CFP phosphorylation shift),ASKζ,potent inhibitors in vivo; also recorded: highly active
same,"Portion undissociated / lipophilic, capable of diffusion through the membrane",[1],100%
